The values below come from ChEMBL document CHEMBL1139569, “Hologram quantitative structure-activity relationships for a series of farnesoid X receptor activators” (Bioorg Med Chem Lett, 2005).

Bounds are passed on as bounds.

One assay concerns the target T1, Bile acid receptor (Homo sapiens, UniProt Q96RI1).
T1 sequence (Q96RI1 whole entry): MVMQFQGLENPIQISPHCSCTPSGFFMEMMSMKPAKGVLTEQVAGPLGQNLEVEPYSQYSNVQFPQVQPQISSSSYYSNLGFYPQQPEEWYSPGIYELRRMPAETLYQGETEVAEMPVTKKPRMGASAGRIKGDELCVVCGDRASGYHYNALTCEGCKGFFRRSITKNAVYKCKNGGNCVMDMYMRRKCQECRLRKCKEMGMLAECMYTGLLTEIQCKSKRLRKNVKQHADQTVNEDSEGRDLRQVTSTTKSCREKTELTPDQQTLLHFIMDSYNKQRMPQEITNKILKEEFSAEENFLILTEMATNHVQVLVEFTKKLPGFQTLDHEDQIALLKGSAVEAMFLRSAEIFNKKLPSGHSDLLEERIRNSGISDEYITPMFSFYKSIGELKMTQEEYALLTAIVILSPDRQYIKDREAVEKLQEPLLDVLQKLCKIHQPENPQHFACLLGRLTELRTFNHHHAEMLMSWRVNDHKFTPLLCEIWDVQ
Briefly: (§1) Effective concentration against farnesoid X receptor (FXR).
As a reminder, the EC50 is the concentration that produces a half-maximal response. In the case of `COC(=O)/C=C/c1cccc(N(Cc2ccc(-c3cccc(OC)c3)cc2)C(=O)C2CCCCC2)c1`, the EC50 was 0.0776 µM.

For the molecule `COC(=O)/C=C/c1cccc(N(Cc2ccc(-c3c(OC)cccc3OC)cc2)C(=O)NC(C)C)c1`, the midpoint of the response, the EC50, lay at 0.562 µM.

Molecule `COC(=O)/C=C/c1cccc(N(Cc2ccc(/C=C/c3c(Cl)cccc3Cl)cc2)C(=O)C2CCCCC2)c1` had a concentration giving a half-maximal response (EC50) of 0.151 µM.

`COC(=O)/C=C/c1cccc(N(Cc2ccc(/C=C/c3ccc(F)cc3)cc2)C(=O)C2CCCCC2)c1` showed an EC50 of 0.186 µM.

With `COC(=O)/C=C/c1cccc(N(Cc2ccc(-c3cc(Cl)ccc3OC)cc2)C(=O)C2CCCCC2)c1`, the EC50 was 0.234 µM.

`COC(=O)/C=C/c1cccc(N(Cc2cc(OC)cc(OC)c2)C(=O)C2CCCCC2)c1` had a half-maximal effective concentration (EC50) of 0.603 µM.

The molecule `COC(=O)/C=C/c1cccc(N(Cc2ccc(/C=C/C(=O)OC(C)(C)C)cc2O)C(=O)C2CCCCC2)c1` showed a 50% effective concentration (EC50) of 1 µM.

`COC(=O)/C=C/c1cccc(N(Cc2ccc(/C=C/C(=O)O)cc2)C(=O)C2CCCCC2)c1` showed an EC50 of 1 µM.

The molecule `COC(=O)/C=C/c1cccc(N(Cc2ccc(-c3ccc(OC(F)(F)F)cc3)cc2)C(=O)C2CCCCC2)c1` gave an EC50 of 0.263 µM.

Turning to `COC(=O)/C=C/c1cccc(N(Cc2ccc(-c3cccc(C)c3)cc2)C(=O)NC(C)C)c1`, the concentration for a half-maximal effect (EC50) is 1.32 µM.

Take `COC(=O)/C=C/c1cccc(N(Cc2ccc(/C=C/c3cccc(F)c3)cc2)C(=O)NC(C)C)c1`: the half-maximal effective concentration (EC50) was 0.468 µM.

`COC(=O)/C=C/c1cccc(N(Cc2ccc(-c3cccc(OC)c3)cc2)C(=O)C(C)C)c1` had an EC50 of 0.0724 µM.

Regarding `COC(=O)/C=C/c1cccc(N(Cc2ccc(-c3cccc(OC(F)(F)F)c3)cc2)C(=O)C2CCCCC2)c1`, the 50% effective concentration (EC50) was 0.417 µM.

In turn, `COC(=O)/C=C/c1cccc(N(Cc2ccc(-c3cccc(Cl)c3)cc2)C(=O)NC(C)C)c1` gave an EC50 of 1.41 µM.

`COC(=O)/C=C/c1cccc(N(Cc2ccc(/C=C/c3cccc(Cl)c3)cc2)C(=O)C(C)C)c1` gave an EC50 of 0.162 µM.

In turn, `COC(=O)/C=C/c1cccc(N(Cc2ccc(/C=C/c3ccccc3)cc2)C(=O)C(C)C)c1` gave an EC50 of 0.0646 µM.

Molecule `COC(=O)/C=C/c1cccc(N(Cc2ccc(-c3ccc4c(c3)OCO4)cc2)C(=O)C(C)C)c1` showed an EC50 of 0.0191 µM.

Molecule `COC(=O)/C=C/c1cccc(N(Cc2ccc(/C=C/c3cccc(Cl)c3)cc2)C(=O)C2CCCCC2)c1` had a 50% effective concentration (EC50) of 0.166 µM.

`COC(=O)/C=C/c1cccc(N(Cc2ccc(/C=C/c3ccccc3F)cc2)C(=O)C(C)C)c1` gave an EC50 of 0.0708 µM.

Molecule `COC(=O)/C=C/c1cccc(N(Cc2ccc(-c3ccc(F)c(Cl)c3)cc2)C(=O)C(C)C)c1` gave a 50% effective concentration (EC50) of 0.129 µM.

`CC(C)(C)OC(=O)/C=C/c1ccc(CN(C(=O)C2CCCCC2)c2cccc(/C=C/C(=O)OC(C)(C)C)c2)cc1` gave an EC50 of 1 µM.

The target in the next assay is T1, Bile acid receptor. The assay is described as §1.
Molecule `COC/C=C/c1ccc(CN(C(=O)C2CCCCC2)c2cccc(/C=C/C(=O)OC)c2)cc1` displayed a half-maximal effective concentration (EC50) of 0.233 µM.

Turning to `COC(=O)/C=C/c1cccc(N(Cc2ccc(/C=C/c3ccccc3F)cc2)C(=O)C2CCCCC2)c1`, the response was half-maximal at 0.064 µM (EC50).

In the case of `COC(=O)/C=C/c1cccc(N(Cc2ccc(/C=C/c3c(Cl)cccc3Cl)cc2)C(=O)C2CCCCC2)c1`, a half-maximal response (EC50) required 0.15 µM.

With `COC(=O)/C=C/c1cccc(N(Cc2ccc(-c3ccc(C)s3)cc2)C(=O)C2CCCCC2)c1`, the 50% effective concentration (EC50) stood at 0.206 µM.

`COC(=O)/C=C/c1cccc(N(Cc2ccc(/C=C/C(=O)OC(C)(C)C)cc2OCc2ccccc2)C(=O)C2CCCCC2)c1`: the EC50 was greater than 1 µM.

Consider `CCOC/C=C/c1cccc(N(Cc2ccc(/C=C/C(=O)OC(C)(C)C)cc2)C(=O)C2CCCCC2)c1`, for which the midpoint of the response, the EC50, lay at 0.22 µM.

As for `COC(=O)/C=C/c1cccc(N(Cc2ccc(/C=C/C(=O)OCc3ccccc3)cc2)C(=O)C2CCCCC2)c1`, the EC50 is greater than 1 µM.

As to `COC(=O)/C=C/c1cccc(N(Cc2ccc(/C=C/c3ccc(F)cc3)cc2)C(=O)C2CCCCC2)c1`, the EC50 stood at 0.185 µM.

For `COC(=O)/C=C/c1cccc(N(Cc2ccc(/C=C/C(=O)OC(C)(C)C)cc2OC)C(=O)C2CCCCC2)c1`, the half-maximal effective concentration (EC50) is greater than 1 µM.

The molecule `COC(=O)/C=C/c1cccc(N(Cc2ccc(-c3ccc4c(c3)OCO4)cc2)C(=O)C2CCCCC2)c1` returned an EC50 of 0.038 µM.

The molecule `COC(=O)/C=C/c1cccc(N(Cc2ccc(/C=C/C(=O)N(C)C)cc2)C(=O)C2CCCCC2)c1` gave a concentration for a half-maximal effect (EC50) greater than 1 µM.

The molecule `COC(=O)/C=C/c1cccc(N(Cc2ccc(/C=C/c3ccc(OC)cc3)cc2)C(=O)C2CCCCC2)c1` registered an EC50 of 0.208 µM.

In the case of `CCOC(=O)COc1cc(/C=C/C(=O)OC(C)(C)C)ccc1CN(C(=O)C1CCCCC1)c1cccc(/C=C/C(=O)OC)c1`, the 50% effective concentration (EC50) was greater than 1 µM.

For `COC(=O)/C=C/c1cccc(N(Cc2ccc(/C=C/C(=O)OC(C)(C)C)cc2OC(C)=O)C(=O)C2CCCCC2)c1`, the concentration for a half-maximal effect (EC50) is greater than 1 µM.

`COC/C=C/c1cccc(N(Cc2ccc(/C=C/C(=O)OC(C)(C)C)cc2)C(=O)C2CCCCC2)c1`: the EC50 came out at 0.243 µM.

`CC(C)(C)OC(=O)/C=C/c1cccc(N(Cc2ccc(CCC(=O)OC(C)(C)C)cc2)C(=O)C2CCCCC2)c1` yielded an EC50 greater than 1 µM.

The molecule `COC(=O)/C=C/c1cccc(N(Cc2ccc(/C=C/C(=O)OC(C)(C)C)cc2O)C(=O)C2CCCCC2)c1` gave an EC50 greater than 1 µM.

`COC(=O)/C=C/c1cccc(N(Cc2ccc(/C=C/c3scnc3C)cc2)C(=O)C(C)C)c1` yielded an EC50 of 0.228 µM.

On to `COC(=O)/C=C/c1cccc(N(Cc2ccc(/C=C/c3cc(C(F)(F)F)cc(C(F)(F)F)c3)cc2)C(=O)C2CCCCC2)c1`, for which the EC50 was determined as 1.47 µM.

`CC(C)(C)OC(=O)/C=C/c1ccc(CN(C(=O)C2CCCCC2)c2cccc(/C=C/C(N)=O)c2)cc1`: the concentration for a half-maximal effect (EC50) was greater than 1 µM.

In turn, `COC(=O)/C=C/c1cccc(N(Cc2ccc(/C=C/C(=O)O)cc2)C(=O)C2CCCCC2)c1` yielded a 50% effective concentration (EC50) greater than 1 µM.

As for `COC(=O)/C=C/c1cccc(N(Cc2ccc(/C=C/C(=O)OC(C)(C)C)cc2OS(C)(=O)=O)C(=O)C2CCCCC2)c1`, the concentration giving a half-maximal response (EC50) was greater than 1 µM.

Regarding `COC(=O)/C=C/c1cccc(N(Cc2ccc(/C=C/c3ccccn3)cc2)C(=O)C(C)C)c1`, the half-maximal effective concentration (EC50) stood at 0.31 µM.

Turning to `COC(=O)/C=C/c1cccc(N(Cc2ccc(/C=C/C(=O)NC(C)(C)C)cc2)C(=O)C2CCCCC2)c1`, the EC50 is greater than 1 µM.

The molecule `COC(=O)/C=C/c1cccc(N(Cc2ccc(/C=C/c3ccccn3)cc2)C(=O)C2CCCCC2)c1` returned a concentration giving a half-maximal response (EC50) of 0.309 µM.

`COC(=O)/C=C/c1cccc(N(Cc2ccc(/C=C/c3cccc(Cl)c3)cc2)C(=O)C2CCCCC2)c1` displayed a 50% effective concentration (EC50) of 0.165 µM.

For `COC(=O)/C=C/c1cccc(N(Cc2ccc(/C=C/c3scnc3C)cc2)C(=O)C2CCCCC2)c1`, the EC50 worked out at 0.227 µM.

Turning to `COC(=O)/C=C/c1cccc(N(Cc2ccc(/C=C/C(=O)OC(C)(C)C)cc2OC(=O)c2ccccc2)C(=O)C2CCCCC2)c1`, the EC50 is greater than 1 µM.

In turn, `COC(=O)/C=C/c1cccc(N(Cc2ccc(-c3c(OC)cccc3OC)cc2)C(=O)C2CCCCC2)c1` showed an EC50 of 0.077 µM.

The molecule `COC(=O)/C=C/c1cccc(N(Cc2ccc(/C=C/c3cccc(F)c3)cc2)C(=O)C2CCCCC2)c1` gave an EC50 of 0.086 µM.

For `CCOC(=O)/C=C/c1ccc(CN(C(=O)C2CCCCC2)c2cccc(/C=C/C(=O)OC)c2)cc1`, the 50% effective concentration (EC50) was greater than 1 µM.

Turning to `CC(C)(C)OC(=O)/C=C/c1ccc(CN(C(=O)C2CCCCC2)c2cccc(/C=C/C(=O)OC(C)(C)C)c2)cc1`, the concentration giving a half-maximal response (EC50) is greater than 1 µM.

`COC(=O)/C=C/c1ccc(CN(C(=O)C2CCCCC2)c2cccc(/C=C/C(=O)OC)c2)cc1` gave an EC50 greater than 1 µM.

The molecule `COC(=O)/C=C/c1cccc(N(Cc2ccc(-c3ccc(N(C)C)cc3)cc2)C(=O)C2CCCCC2)c1` [FEXARAMINE] registered a concentration for a half-maximal effect (EC50) of 0.025 µM.
